Data reported in patent publication US20230329236A1, “HERBICIDAL PYRIMIDINE DERIVATIVES” (MoA Technology Limited, priority 2020, published 2023).

Columns and labels:
Conditions in all cases: 336 h, Table 3, post-emergence, 14±1 days post application
[1] = test system: Lolium multiflorum (LOLMU); assay: Post-emergence glasshouse test, visual injury, LOLMU; format: in vivo
Protocol: (§1) Seeds of a variety of test species are grown in a sandy loam soil mixture, Lolium multiflorum (LOLMU), Amaranthus retroflexus (AMARE), Echinochloa crus-gaffi (ECHCG), Veronica persica (VERPE), Glycine max (GLXMA), Oryza sativa (ORYSA), Zea mays (ZEAMX), spring wheat (TRZAS), Ipomoea hederacea (IPOHE), Ipomoea purpurea (PHBPU), Stellaria media (STEME), Solanum nigrum (SOLNI), Digitaria sanguinalis (DIGSA), Setaria italica (SETIT), Alopecurus myosuroides (ALOMY) and Avena fatua (AVEFA).
(§2) After sowing, at growth stage BBCH 12-14 (post-emergence), the plants are sprayed with an aqueous spray solution derived from the formulation of the technical active ingredient in acetone/water (50:50) solution containing 0.5% Tween 20 (polyoxyethlyene sorbitan monolaureate, CAS RN 9005-64-5). The test compounds are applied at the required concentration of active ingredient in g/ha. The test plants are then grown in a glasshouse under controlled environmental conditions and watered regularly as required. After 14±1 days post application (for post-emergence test), the test is evaluated by assessing the percentage damage caused to the plants in comparison with the untreated plots. The biological activities for post-emergence testing are shown below (Table 3 and Table 4) as a % visual injury.

[2] = test system: Echinochloa crus-gaffi (ECHCG); assay: Post-emergence glasshouse test, visual injury, ECHCG; format: in vivo, Echinochloa crus-galli
Protocol: as §1, §2

Veronica persica (VERPE) = assay: Post-emergence glasshouse test, visual injury, VERPE; format: in vivo
Protocol: as §1, §2

[3] = test system: Amaranthus retroflexus (AMARE); assay: Post-emergence glasshouse test, visual injury, AMARE; format: in vivo
Protocol: as §1, §2

| Compound | pest or weed control at 500 g/ha [1] | pest or weed control at 500 g/ha [2] | pest or weed control at 500 g/ha (Veronica persica (VERPE)) | pest or weed control at 500 g/ha [3] | further results |
| --- | --- | --- | --- | --- | --- |
| Cc1cc(-c2cnc(NCc3ccc(Cl)cc3)nc2C(C)C)on1 [Compound 102] | – | – | – | – | pest or weed control at 62 g/ha [1]: 20%; pest or weed control at 125 g/ha [1]: 40%; pest or weed control at 62 g/ha [2]: 80%; pest or weed control at 125 g/ha [2]: 80%; pest or weed control at 62 g/ha (Veronica persica (VERPE)): 80%; pest or weed control at 125 g/ha (Veronica persica (VERPE)): 100%; pest or weed control at 62 g/ha [3]: 98%; pest or weed control at 125 g/ha [3]: 100% |
| Cc1cc(-c2cnc(N3CCC(C(N)=O)CC3)nc2-c2ccc(C)o2)on1 [Compound 19] | – | – | – | – | pest or weed control at 1000 g/ha [1]: 0%; pest or weed control at 1000 g/ha [2]: 20%; pest or weed control at 1000 g/ha (Veronica persica (VERPE)): 0%; pest or weed control at 1000 g/ha [3]: 70% |
| Cc1cc(-c2cnc(N3CCN(c4ncccn4)CC3)nc2C(C)(C)C)on1 [Compound 61] | 0% | 0% | 0% | 60% | – |
| Cc1cc(-c2cnc(NCc3cccnc3)nc2-c2ccc(C)o2)on1 [Compound 22] | 0% | 50% | 60% | 60% | – |
| Cc1cc(-c2cnc(NC3CC3)nc2C(F)(F)F)on1 [Compound 114] | – | – | – | – | pest or weed control at 125 g/ha [1]: 0%; pest or weed control at 125 g/ha [2]: 20%; pest or weed control at 125 g/ha (Veronica persica (VERPE)): 70%; pest or weed control at 125 g/ha [3]: 0% |
| Cc1cc(-c2cnc(N(C)C)nc2-c2ccc(C)o2)on1 [Compound 43] | 40% | 60% | 0% | 50% | – |
| Cc1cc(-c2cnc(NCc3ccccc3Cl)nc2C(C)C)on1 [Compound 101] | – | – | – | – | pest or weed control at 62 g/ha [1]: 0%; pest or weed control at 62 g/ha [2]: 70%; pest or weed control at 62 g/ha (Veronica persica (VERPE)): 40%; pest or weed control at 62 g/ha [3]: 50% |
| COCCNc1ncc(-c2cc(C)no2)c(-c2ccc(C)o2)n1 [Compound 65] | 0% | 30% | 0% | 60% | – |
| Cc1cc(-c2cnc(NC3CCC3)nc2C(C)C)on1 [Compound 14] | 50% | 100% | 100% | 100% | – |
| Cc1cc(-c2cnc(NC3CCCC3)nc2-c2ccc(C)o2)on1 [Compound 24] | 0% | 70% | 0% | 50% | – |
| Cc1cc(-c2cnc(NCC3CCOCC3)nc2C(C)C)on1 [Compound 109] | – | – | – | – | pest or weed control at 125 g/ha [1]: 0%; pest or weed control at 125 g/ha [2]: 0%; pest or weed control at 125 g/ha (Veronica persica (VERPE)): 70%; pest or weed control at 125 g/ha [3]: 40% |
| Cc1cc(-c2cnc(NCc3cccnc3)nc2C(C)C)on1 [Compound 28] | 0% | 70% | 98% | 90% | – |
| Cc1cc(-c2cnc(NC3CCC3)nc2C(F)(F)F)on1 [Compound 110] | – | – | – | – | pest or weed control at 125 g/ha [1]: 40%; pest or weed control at 125 g/ha [2]: 0%; pest or weed control at 125 g/ha (Veronica persica (VERPE)): 0%; pest or weed control at 125 g/ha [3]: 0% |
| Cc1cc(-c2cnc(NCc3ccc(F)cc3)nc2C(F)F)on1 [Compound 120] | – | – | – | – | pest or weed control at 125 g/ha [1]: 0%; pest or weed control at 125 g/ha [2]: 20%; pest or weed control at 125 g/ha (Veronica persica (VERPE)): 40%; pest or weed control at 125 g/ha [3]: 30% |
| CCOCCCNc1ncc(-c2cc(C)no2)c(C(C)(C)C)n1 [Compound 40] | 0% | 30% | 0% | 70% | – |
| Cc1cc(-c2cnc(NC(C)C)nc2C(C)(C)C)on1 [Compound 73] | 40% | 70% | 0% | 70% | – |
| Cc1cc(-c2cnc(NCCn3nccc3C)nc2C(C)C)on1 [Compound 41] | 30% | 60% | 50% | 95% | – |
| Cc1cc(-c2cnc(NC(C)C)nc2-c2ccc(C)o2)on1 [Compound 51] | 0% | 70% | 0% | 0% | – |
| Cc1cc(-c2cnc(NCc3ccncc3)nc2-c2ccc(C)o2)on1 [Compound 21] | 0% | 20% | 90% | 50% | – |

| Compound | pest or weed control at 500 g/ha [1] | pest or weed control at 500 g/ha [2] | pest or weed control at 500 g/ha (Veronica persica (VERPE)) | pest or weed control at 500 g/ha [3] | further results |
| --- | --- | --- | --- | --- | --- |
| Cc1cc(-c2cnc(NCc3ccccn3)nc2C2CC2)on1 [Compound 67] | 20% | 40% | 50% | 60% | – |
| Cc1cc(-c2cnc(NCc3cccc(C#N)c3)nc2C(C)C)on1 [Compound 97] | – | – | – | – | pest or weed control at 62 g/ha [1]: 20%; pest or weed control at 62 g/ha [2]: 70%; pest or weed control at 62 g/ha (Veronica persica (VERPE)): 70%; pest or weed control at 62 g/ha [3]: 50% |
| CCNc1ncc(-c2cc(C)no2)c(C(C)C)n1 [Compound 11] | – | – | – | – | pest or weed control at 250 g/ha [1]: 0%; pest or weed control at 250 g/ha [2]: 80%; pest or weed control at 250 g/ha (Veronica persica (VERPE)): 70%; pest or weed control at 250 g/ha [3]: 100% |
| Cc1cc(-c2cnc(N3CCC(O)C(C)C3)nc2C2CC2)on1 (stereo not shown) [Compound 60] | 70% | 30% | 60% | 60% | – |
| Cc1cc(-c2cnc(NC3CCCC3)nc2C2CC2)on1 [Compound 13, N-cyclopentyl-4-cyclopropyl-5-(3-methyl-1,2-oxazol-5-yl)pyrimidin-2-amine] | – | – | – | – | pest or weed control at 125 g/ha [1]: 40%; pest or weed control at 250 g/ha [1]: 80%; pest or weed control at 125 g/ha [2]: 80%; pest or weed control at 250 g/ha [2]: 100%; pest or weed control at 125 g/ha (Veronica persica (VERPE)): 70%; pest or weed control at 250 g/ha (Veronica persica (VERPE)): 100%; pest or weed control at 125 g/ha [3]: 80%; pest or weed control at 250 g/ha [3]: 100% |
| C=COCCCNc1ncc(-c2cc(C)no2)c(C(C)(C)C)n1 [Compound 33] | 0% | 70% | 0% | 80% | – |
| COCCCNc1ncc(-c2cc(C)no2)c(-c2ccc(C)o2)n1 [Compound 27] | 0% | 20% | 50% | 70% | – |
| Cc1cc(-c2cnc(NCc3ccccc3F)nc2C(F)(F)F)on1 [Compound 113] | – | – | – | – | pest or weed control at 125 g/ha [1]: 0%; pest or weed control at 125 g/ha [2]: 20%; pest or weed control at 125 g/ha (Veronica persica (VERPE)): 0%; pest or weed control at 125 g/ha [3]: 30% |
| Cc1cc(-c2cnc(NCc3ccc(F)cc3)nc2C(C)C)on1 [Compound 93] | – | – | – | – | pest or weed control at 125 g/ha [1]: 60%; pest or weed control at 125 g/ha [2]: 80%; pest or weed control at 125 g/ha (Veronica persica (VERPE)): 100%; pest or weed control at 125 g/ha [3]: 100% |
| CC(C)c1nc(NC2CCCC2)ncc1-c1cncs1 [Compound 124] | – | – | – | – | pest or weed control at 62 g/ha [1]: 0%; pest or weed control at 62 g/ha [2]: 0%; pest or weed control at 62 g/ha (Veronica persica (VERPE)): 0%; pest or weed control at 62 g/ha [3]: 10% |
| COCCNc1ncc(-c2cc(C)no2)c(-c2ccncc2)n1 [Compound 66] | 60% | 20% | 70% | 70% | – |
| Cc1cc(-c2cnc(NCc3ccncc3F)nc2C(C)C)on1 [Compound 95] | – | – | – | – | pest or weed control at 62 g/ha [1]: 30%; pest or weed control at 62 g/ha [2]: 60%; pest or weed control at 62 g/ha (Veronica persica (VERPE)): 60%; pest or weed control at 62 g/ha [3]: 30% |
| Cc1cc(-c2cnc(N3CCCCC3)nc2-c2ccc(C)o2)on1 [Compound 79] | 30% | 60% | 0% | 90% | – |
| Cc1ncc(-c2cnc(NC3CCCC3)nc2C(C)C)s1 [Compound 123] | – | – | – | – | pest or weed control at 62 g/ha [1]: 0%; pest or weed control at 62 g/ha [2]: 0%; pest or weed control at 62 g/ha (Veronica persica (VERPE)): 50%; pest or weed control at 62 g/ha [3]: 0% |
| Cc1cc(-c2cnc(NCC3CCCO3)nc2-c2ccc(C)o2)on1 (stereo not shown) [Compound 86] | – | – | – | – | pest or weed control at 1000 g/ha [1]: 0%; pest or weed control at 1000 g/ha [2]: 0%; pest or weed control at 1000 g/ha (Veronica persica (VERPE)): 70%; pest or weed control at 1000 g/ha [3]: 0% |
| Cc1cc(-c2cnc(NCc3cccc(Cl)c3)nc2C(C)C)on1 [Compound 117] | – | – | – | – | pest or weed control at 125 g/ha [1]: 30%; pest or weed control at 125 g/ha [2]: 70%; pest or weed control at 125 g/ha (Veronica persica (VERPE)): 70%; pest or weed control at 125 g/ha [3]: 70% |
| CC(=O)N1CCN(c2ncc(-c3cc(C)no3)c(-c3ccncc3)n2)CC1 [Compound 59] | 50% | 0% | 90% | 0% | – |
| Cc1cc(-c2cnc(N3CCC(C(N)=O)CC3)nc2-c2ccc(C)s2)on1 [Compound 88] | – | – | – | – | pest or weed control at 125 g/ha [1]: 0%; pest or weed control at 125 g/ha [2]: 20%; pest or weed control at 125 g/ha (Veronica persica (VERPE)): 0%; pest or weed control at 125 g/ha [3]: 20% |
| Cc1cc(-c2cnc(N3CCC(O)CC3)nc2C(C)C)on1 [Compound 76] | 0% | 30% | 0% | 80% | – |
